Reference: US20060178307A1, “Modulation of NMDA receptor currents via orexin receptor and/or CRF receptor” (priority 2005, published 2006)
“Also recorded” adds a separate entry of the source. Where no end group is shown, it is not given here.

What was measured:
[1] = system: AMPAR mEPSCs; assay: AMPAR-mediated miniature EPSCs (mEPSCs) in VTA neurons; format: cell-based, rat; conditions: APV 50 μM 3 min prior and during orexin application
Method: Next, to investigate whether AMPAR function and/or number was modified with orexin A treatment, AMPAR-mediated miniature EPSCs (mEPSCs) were examined (a standard method for determining the locus of synaptic change). Compared to untreated neurons, orexin A (100 nM) caused a significant increase in both amplitude (FIG. 6C,D,F) and frequency (FIG. 6C,E,G) 3-4 hours after application (24±1.6 pA; 2.4±0.5 Hz; n=7 vs control: 13±1.3 pA; 0.93±0.16 Hz; n=7; FIG. 6A), but not at 15 min (15±1.7 pA; 0.9±0.1 Hz; n=[…], FIG. 6B).
AMPAR mEPSCs were recorded in cells voltage-clamped at −70 mV in lidocaine (500 μM), APV (50 μM) and sucrose (100 mM). NMDAR mEPSCs were recorded at −40 mV in Mg2+-free external solution with lidocaine (500 μM), glycine (20 μM), and CNQX (10 μM). mEPSCs were collected using Clampex (Axon Instruments) and analyzed using Mini Analysis Program (Synaptosoft). Detection criteria were set at >10 pA, <1 ms rise-time, and <3 ms decay-time for AMPAR mEPSCs and >10 pA, <1 ms rise-time, and <10 ms decay-time for NMDAR mEPSCs. mEPSC traces were recorded while sampling every 10 μs, the images were filtered at 5 kHz. Averaged mEPSCs were constructed using Mini Analysis Program (Synaptosoft).

[2] = system: NMDAR-mediated EPSCs in VTA dopamine neurons; assay: Evoked NMDAR-mediated EPSCs, whole-cell voltage clamp at +40 mV, VTA neurons in midbrain slices; format: cell-based, rat; conditions: for effect on potentiation of NMDAR-mediated EPSCs by orexin A: inhibitor 100 μM in patch pipette; for effect on potentiation of NMDAR-mediated EPSCs by 100 nM orexin A: inhibitor 1 μM in patch pipette
Method: Excitatory postsynaptic currents (EPSCs) were recorded from VTA neurons in rat midbrain slices. EPSCs were evoked while holding neurons in voltage clamp at +40 mV. Measurements were taken 20 ms after the stimulus artifact, a time point at which the glutamatergic EPSC is mediated purely by NMDARs.
The patch pipette was loaded with the PLC inhibitor, U-73122 (1 μM, FIG. 2A, C, n=6) or the PKC inhibitor, chelerythrin (1 μM, FIG. 1A, B, n=6). […] Next, the protein kinase A inhibitor, PKI (20 μM, FIG. 2A, F, n=8) or Rp-cAMPs, a blocker of cAMP (100 μM, FIG. 2A, E, n=5) was added to the patch pipette.
Activation of PKC is implicated in NMDAR-dependent long-term potentiation (Malinow et al., 1989) and it modulates NMDAR trafficking to the membrane (Lan et al., 2001; Scott et al., 2001; Fong et al., 2002). NMDARs can translocate from intracellular or extrasynaptic pools to synaptic sites (Lan et al., 2001; Tovar and Westbrook, 2002). […] In a separate group of slices, orexin A (100 nM, n=6) was applied for 5 min during the washout period.
All of the electrophysiological recordings were performed in rats ranging from P21 to P30. Briefly, rats were anesthetized with halothane and sacrificed. Horizontal sections of the VTA ([…]) were prepared with a vibratome (Leica, Nussloch, Germany). Slices were placed in a holding chamber and allowed to recover for at least 1 hour before being placed in the recording chamber and superfused with bicarbonate-buffered solution (ACSF) saturated with 95% O2/5% CO2 and containing (in mM): 119 NaCl, 1.6 KCl, 1.0 NaH2PO4, 1.3 MgCl2, 2.5 CaCl2, 26.2 NaHCO3 and 11 glucose (at 32-34° C.). Picrotoxin (100 μM) was added to block GABAA receptor-mediated inhibitory postsynaptic currents. Cells were visualized using infrared differential interference contrast video microscopy. Whole-cell voltage clamp recordings were made using an Axopatch 1D amplifier (Axon Instruments, Union City, Calif.). Electrodes (2.8-4.0 MΩ) contained (in mM): 120 Cesium Methansulfonate, 20 HEPES, 0.4 EGTA, 2.8 NaCl, 5 TEA-Cl, 2.5 MgATP, and 0.25 NaGTP, pH 7.2-7.3 (270-285 mOsm). Series resistance (10-40 MΩ) and input resistance were monitored on-line with a 4-mV depolarizing step (50 ms) given just after every afferent stimulus. Dopaminergic VTA neurons were identified by the presence of a large Ih current (Lacey et al., 1990; Johnson and North, 1992) and, in some cases, tyrosine hydroxylase labeling. A bipolar stimulating electrode was placed 100-300 μm rostral to the recording electrode and was used to stimulate excitatory afferents at 0.1 Hz. Neurons were voltage-clamped at −70 mV and +40 mV to record AMPAR- and NMDAR-mediated EPSCs.

[3] = system: locomotor activity; assay: Locomotor sensitization to cocaine, i.p. OXR1 antagonist, open field; format: in vivo, Sprague-Dawley rats; conditions: n=13
Method: To determine if orexin signaling plays a role in behavioral sensitization to cocaine, either the OXR1 antagonist SB 334867 (10 mg/kg, i.p.) or vehicle was injected 15 min prior to injecting cocaine (15 mg/kg, i.p) or saline (0.9%), and then the rats were placed in an open field chamber to measure locomotor activity for 1 hour each day for 5 days.
Therefore, to determine if expression of cocaine sensitization requires release of orexin acting at the OXR1 receptor, the OXR1 antagonist SB 334867 (10 mg/kg) was injected with cocaine (15 mg/kg) on day 6 into either cocaine-sensitized or saline-treated rats.
(§1) Male Sprague-Dawley Rats (P21-P30; Charles River, N.C.) were singly housed with food and water available ad libitum. A 12 hr light/dark cycle was used, with the lights on at 7:00 A.M. All cocaine injections and behavioral testing were performed during the light cycle for consecutive days. The four treatment groups consisted of rats given 5 daily i.p. injections of SB 334867 (10 mg/kg) 15 min preceding i.p. injection of cocaine (15 mg/kg) or saline (0.9% NaCl), or i.p. injections of vehicle (10% DMSO and 25% β-hydroxy cyclodextrin in saline) 15 min preceding i.p. injection of cocaine or saline. All animals were habituated to the photocell boxes (Med Associates, St. Albans, Vt.) for 2 hours prior to the start of the experiment. All animals were further habituated to the photocell boxes for 30 min prior to 60 min testing session. Locomotor activity was measured in 17″×17″ chambers lined with three 16-beam I/R arrays. A 50 ms scanning rate was used for measurement of beams broken. Distance traveled was measured using Open Field Activity Software (Med Associates, Inc) and analyzed for estimates of locomotion based on the movement of a given distance and resting delay (movement in a given period of time).

[4] = system: AMPAR/NMDAR ratio of EPSCs in VTA dopamine cells; assay: AMPAR/NMDAR ratio in VTA slices 24 hr after 5-day in vivo treatment; parameters: species or system rat; conditions: cocaine 15 mg/kg, 5-day treatment, n=4
Method: The next study investigated whether orexin signaling in the VTA is required for the long-term plasticity associated with the development of behavioral sensitization. Long-term synaptic plasticity at excitatory synapses on VTA neurons was examined 24 hr after a 5-day treatment of cocaine (15 mg/kg) or saline (0.9%), a time course shown to induce long-lasting locomotor sensitization to cocaine (Thomas et al., 2001), with or without the OXR1 antagonist, SB 334867 (10 mg/kg, FIG. 5). To assay for synaptic plasticity, the relative contributions of AMPARs and NMDARs to EPSCs recorded in VTA dopamine cells were compared. Consistent with the potentiation observed following acute and 7-day cocaine treatments (Borgland et al., 2004), 5-day treatment with cocaine potentiated the AMPAR/NMDAR ratio compared to saline controls (FIG. 5A, saline: 0.4±0.07, n=4; cocaine: 0.8±0.1, n=4, p<0.05). This potentiation of synaptic plasticity was blocked by 5-day treatment with the OXR1 antagonist, SB 334867, administered 15 min prior to cocaine or saline (FIG. 5A, saline+SB334867: 0.4±0.02, n=5 vs. cocaine+SB334867: 0.5±0.08, n=11, p>0.05). Since OXR1 antagonists block cocaine-mediated potentiation of the AMPAR/NMDAR ratio, orexin A may either facilitate cocaine-mediated synaptic plasticity or enhance synaptic transmission itself. A 5-min orexin A application was performed to determine whether this caused changes in AMPAR/NMDAR ratio either 15 min or 3-4 hours after application (FIG. 5B).
To calculate the AMPAR/NMDAR ratio, an average of 12 EPSCs at +40 mV was computed before and after application of the NMDAR blocker, AP5 (50 μM) for 5 min. NMDAR responses were calculated by subtracting the average response in the presence of AP5 (AMPAR only) from that seen in its absence; the peak of the AMPAR EPSC was divided by the peak of the NMDAR EPSC to yield an AMPAR/NMDAR ratio.
as §1, with “All animals were habituated to the photocell boxes (Med Associates, St. Albans, Vt.) for 2 hours prior to the start of the experiment. All animals were further habituated to the photocell boxes for 30 min prior to 60 min testing session.” left out, “A 50 ms scanning rate was used for measurement of beams broken.” left out

[5] = system: locomotor activity; assay: Locomotor sensitization to cocaine, intra-VTA OXR1 antagonist, 7-day paradigm; format: in vivo, Sprague-Dawley rats; conditions: control animals: intra-VTA vehicle + cocaine 15 mg/kg
Method: Male Sprague-Dawley rats (250 grams) were implanted with bilateral cannulae directed at the VTA (AP, −5.2; ML, ±0.5, DV −8.0). Following recovery from surgery, animals were tested in a cocaine sensitization assay similar to that used for systemic administration of the OXR1 antagonist, but with two changes: a 7-day sensitization paradigm was used, and the OXR1 antagonist SB 334867 was microinjected directly into the VTA (6 μg/hemisphere in 300 nL solution composed of 10% DMSO in water). All other methods for habituation and data collection were identical to that described above. Rats were deeply anesthetized with pentobarbital, and perfused with a 10% formaldehyde solution. Brains were cryoprotected in 25% sucrose, 40 μm coronal sections were cut on a freezing microtome, and sections were mounted, dried and coverslipped. Injection sites were located under a light microscope and recorded on atlas figures adapted from Paxinos and Watson (1997).

[6] = system: NMDAR-mediated currents in VTA dopamine cells; assay: CRF-related peptides on NMDAR-mediated currents at excitatory synapses onto VTA dopamine cells; format: cell-based; conditions: mammalian brain

In the case of N[C@H](CCCP(=O)(O)O)C(=O)O [APV, D (−)-2-Amino-5-phosphonopentanoic acid], the “effect on orexin A-induced increase in AMPAR mEPSC amplitude at 3-4 hours” value [1] is reported as “significantly reduced; also recorded: blocked”.
In the case of C[C@H](NC(c1cccc2[nH]c(=O)c(=O)[nH]c12)P(=O)(O)O)c1ccc(Br)cc1 (stereo partly shown) [NVP-AAM077], the remaining current ([2]; NVP-AAM077 0.4 μM applied during peak increase induced by 100 nM orexin A, n=6) is reported as 87±11%, the “effect on expression of orexin A-mediated potentiation of NMDAR EPSCs” value ([2]; NVP-AAM077 0.4 μM applied during peak of potentiation) is reported as “blocked; also recorded: reversed” and the “effect on ability of 100 nM orexin A to potentiate NMDAR EPSCs” value ([2]; NVP-AAM077 0.4 μM pre-applied) is reported as “significantly reduced”. For the same compound, the “inhibition of NMDAR EPSCs” value ([2]; bath application 0.4 μM, n=6) was 54±7%.
With O=C(O)C1NCCN(C(=O)c2ccc3c(ccc4ccccc43)c2)C1C(=O)O (stereo not shown) [PPDA, 1-(phenantrene-2carbonyl) piperazine-2,3-dicarboxylic acid] the “additional inhibition of NMDAR EPSCs” value ([2]; 1 μM on top of NVP-AAM077 and ifenprodil) was 10%, the “effect on orexin A (100 nM)-mediated NMDAR potentiation” value ([2]; PPDA 1 μM after co-application of NVP-AAM077 and ifenprodil) was “blocked” and the remaining current ([2]; PPDA 1 μM with NVP-AAM077 and ifenprodil, n=6) was 14±2.2%.
In the case of Nc1ncnc2c1ncn2[C@@H]1O[C@@H]2CO[P@@](O)(=S)O[C@H]2[C@H]1O [Rp-cAMPs], the “effect on potentiation of NMDAR-mediated EPSCs by orexin A” value ([2]; n=5) is reported as “robust potentiation” and the “effect on potentiation of NMDAR-mediated EPSCs by orexin A” value ([2]; n=5, listed as Rp-cAMPS) is reported as “did not block”.
For COc1ccc2c(c1)CC[C@@H]1[C@@H]2CC[C@]2(C)[C@@H](NCCCCCCN3C(=O)C=CC3=O)CC[C@@H]12 [U-73122], the “effect on potentiation of NMDAR-mediated EPSCs by 100 nM orexin A” value (“effect on potentiation … by 100 nM orexin A” below) ([2]; n=6) was “completely blocked” and the “effect on potentiation … by 100 nM orexin A” value ([2]; n=6, listed as U73122) was “blocked”.
With [Zn+2] [Zn^2+] the “inhibition of NMDAR EPSCs” value ([2]; 100 nM, n=6) was 13±8%, the “inhibition of NMDAR EPSCs” value ([2]; 300 nM, n=5) was 29±9% and the “effect on orexin A-mediated potentiation of NMDARs” value ([2]; Zn2+ 300 nM) was “significantly reduced; also recorded: mostly blocked”.
In the case of COc1ccc2c(c[n+](C)c3c4cc5c(cc4ccc23)OCO5)c1OC [chelerythrin], the “effect on potentiation … by 100 nM orexin A” value ([2]; n=6) is reported as “completely blocked”.
COC(=O)[C@H]1[C@@H](OC(=O)c2ccccc2)C[C@@H]2CC[C@H]1N2C [cocaine] was tested, and the “distance traveled on day 5” value ([3]; cocaine-only-treated rats, 15 mg/kg i.p.) was 20347±5643 cm, the “locomotor activity on day 1” value ([3]; cocaine-treated rats given vehicle) was 5692±1579 cm and the AMPAR/NMDAR ratio [4] was 0.8±0.1. For the same compound, the “mean locomotor distance on day 7” value [5] was 34162±4477 cm.
With CC(C(O)c1ccc(O)cc1)N1CCC(Cc2ccccc2)CC1 (stereo not shown) [ifenprodil] the “remaining current after application” value ([2]; bath-applied 3 μM) was 71±6% and the “effect on orexin A-mediated potentiation of NMDAR EPSCs” value ([2]; ifenprodil 3 μM bath-applied) was “no significant effect; also recorded: not affected”.
With “Urocortin II: peptide that does not bind CRF-BP (IVLSLDVPIGLLQILLEQARARAAREQATTNARILARVGHC; ends and bridges not checked; UniProt Q96RP3 72-112, looked up)” the “potentiation of NMDAR currents” value [6] was “do not potentiate”.
With “Urocortin: may be the endogenous CRF-R2 ligand and also binds CRF-BP (DNPSLSIDLTFHLLRTLLELARTQSQRERAEQNRIIFDSV; ends and bridges not checked; UniProt P55089 83-122, looked up)” the “potentiation of NMDAR currents” value [6] was “mimics CRF”.
“ovine CRF: CRF form that does not bind CRF-BP (SQEPPISLDLTFHLLREVLEMTKADQLAQQAHSNRKLLDIA; ends and bridges not checked; UniProt P01142 148-188, looked up)” was tested, and the “potentiation of NMDAR currents” value [6] was “do not potentiate”.
